Laboratory results: ChEMBL document CHEMBL1165907, “A comparative study of flavonoid analogues on streptozotocin-nicotinamide induced diabetic rats: quercetin as a potential antidiabetic agent acting via 11beta-hydroxysteroid dehydrogenase type 1 inhibition” (2010)

What was measured:
Rattus norvegicus [1] = assay: Antidiabetic activity in Wistar rat assessed as change in blood glucose level at 50 mg/kg, ig after 3 hrs (RVb = -9.83 % +/- 5.67%); format: functional; details: route intragastric
Rattus norvegicus [2] = assay: Antidiabetic activity in Wistar rat assessed as change in blood glucose level at 50 mg/kg, ig after 1 hr (RVb = 20.18 % +/- 8.49%); format: functional; details: route intragastric
Rattus norvegicus [3] = assay: Antidiabetic activity in STZ-induced Wistar rat assessed as reduction in blood glucose level at 50 mg/kg, ig after 3 day relative to control; format: functional; set-up: scale not given: the % may be the effect or the level left; details: route intragastric
Rattus norvegicus [4] = assay: Hypoglycemic activity in Wistar rat assessed as change in blood glucose level at 50 mg/kg, ig after 1 hr (RVb = 10.96 +/- 3.67 %); format: functional; details: route intragastric
Rattus norvegicus [5] = assay: Antidiabetic activity in Wistar rat assessed as change in blood glucose level at 50 mg/kg, ig after 5 hrs (RVb = -1.17% +/- 8.77%); format: functional; details: route intragastric
Rattus norvegicus [6] = assay: Antidiabetic activity in STZ-induced Wistar rat assessed as reduction in blood glucose level at 50 mg/kg, ig after 4 day relative to control; format: functional; set-up: scale not given: the % may be the effect or the level left; details: route intragastric
Rattus norvegicus [7] = assay: Hypoglycemic activity in Wistar rat assessed as change in blood glucose level at 50 mg/kg, ig after 3 hrs (RVb = 1.39 +/- 5.895 %); format: functional; details: route intragastric
Rattus norvegicus [8] = assay: Hypoglycemic activity in Wistar rat assessed as change in blood glucose level at 50 mg/kg, ig after 5 hrs (RVb = 1.21+/- 3.64 %); format: functional; details: route intragastric
Rattus norvegicus [9] = assay: Antidiabetic activity in STZ-induced Wistar rat assessed as reduction in blood glucose level at 50 mg/kg, ig after 1 day relative to control; format: functional; set-up: scale not given: the % may be the effect or the level left; details: route intragastric
Rattus norvegicus [10] = assay: Hypoglycemic activity in Wistar rat assessed as change in blood glucose level at 50 mg/kg, ig after 7 hrs (RVb = -3.59 +/- 2.65 %); format: functional; details: route intragastric
Rattus norvegicus [11] = assay: Antidiabetic activity in STZ-induced Wistar rat assessed as reduction in blood glucose level at 50 mg/kg, ig after 5 day relative to control; format: functional; set-up: scale not given: the % may be the effect or the level left; details: route intragastric
Rattus norvegicus [12] = assay: Antidiabetic activity in Wistar rat assessed as change in blood glucose level at 50 mg/kg, ig after 7 hrs (RVb = -10.51% +/- 5.53%); format: functional; details: route intragastric
Rattus norvegicus [13] = assay: Antidiabetic activity in STZ-induced Wistar rat assessed as reduction in blood glucose level at 50 mg/kg, ig after 2 day relative to control; format: functional; set-up: scale not given: the % may be the effect or the level left; details: route intragastric
[14] = target: 11-beta-hydroxysteroid dehydrogenase 1 (Homo sapiens) (UniProt P28845); assay: Inhibition of human 11beta HSD1 in HEK293 cells at 10 uM; format: cell-based
11-beta-hydroxysteroid dehydrogenase 1 (Homo sapiens), sequence (P28845 whole entry, looked up): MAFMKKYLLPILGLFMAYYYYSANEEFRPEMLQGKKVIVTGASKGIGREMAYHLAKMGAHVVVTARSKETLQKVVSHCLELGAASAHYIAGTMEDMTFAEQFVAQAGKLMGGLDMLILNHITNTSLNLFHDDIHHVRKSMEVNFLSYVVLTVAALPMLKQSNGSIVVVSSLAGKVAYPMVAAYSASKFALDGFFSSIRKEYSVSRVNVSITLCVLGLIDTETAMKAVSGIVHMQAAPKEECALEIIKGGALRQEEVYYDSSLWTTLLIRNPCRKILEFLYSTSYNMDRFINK

SMILES | Activity (Rattus norvegicus [1]) | Activity (Rattus norvegicus [2]) | Activity (Rattus norvegicus [3]) | Activity (Rattus norvegicus [4]) | Activity (Rattus norvegicus [5]) | Activity (Rattus norvegicus [6]) | Activity (Rattus norvegicus [7]) | Activity (Rattus norvegicus [8]) | Activity (Rattus norvegicus [9]) | Activity (Rattus norvegicus [10]) | Activity (Rattus norvegicus [11]) | Activity (Rattus norvegicus [12]) | Activity (Rattus norvegicus [13]) | inhibition [14]
O=c1cc(-c2ccccc2)oc2cc(O)ccc12 [7-HYDROXYFLAVONE] | -12.69% | -12.79% | 36% | 5.05% | -10.03% | 20.4% | -6.19% | 7.39% | 8.8% | -4.81% | 38.5% | -12.18% | 35.5% | –
O=c1cc(-c2ccccc2)oc2ccccc12 [FLAVONE] | -10.02% | 13.53% | 19.5% | -16.16% | -21.41% | 10.6% | -21.56% | -24.7% | 0.05% | -11.65% | 10.8% | -39.69% | 32.76% | 16%
O=c1c(O)c(-c2ccccc2)oc2ccccc12 [FLAVONOL] | -5.92% | 1.93% | 35.7% | -6.04% | -15.66% | 60.1% | -20.2% | -2.36% | 2.09% | -10.05% | 9.2% | -16.04% | 7.7% | –
O=c1cc(-c2ccccc2)oc2ccc(O)cc12 [6-HYDROXYFLAVONE] | -11.07% | -13.08% | 13.15% | -16.21% | -19.81% | 2.53% | 6.51% | 6.41% | 16.9% | -0.93% | 34.7% | -25.42% | 6.6% | –
O=c1cc(-c2ccccc2)oc2cc(O)cc(O)c12 [CHRYSIN] | -9.96% | -1.7% | 5.2% | -9.27% | -10.41% | 0.5% | -19.98% | -17.08% | 7.07% | -9.42% | 17.17% | -35.5% | 19.6% | –
COc1ccc(Cl)cc1C(=O)NCCc1ccc(S(=O)(=O)NC(=O)NC2CCCCC2)cc1 [GLYBURIDE] | -24.93% | -21.93% | 38.5% | -8.29% | -43.88% | 50% | -21.71% | -24.78% | 33.2% | -23.77% | 40% | -42.52% | 32.2% | –
O=c1c(O)c(-c2ccc(O)c(O)c2)oc2cc(O)cc(O)c12 [QUERCETIN] | -17.28% | -2.37% | 27% | -16.19% | -52.68% | 21.3% | -21.1% | -10.74% | 10.8% | -17.85% | 3.7% | -42.62% | 13.3% | 27%
